Tested on: L-1210 leukemia cells
Experiment: L-1210 murine leukemia assay (increase in median life span)
Assay type: in vivo, Mice
Details: for ILS%: increase in median life span vs untreated controls, at LD10 dose, 5 injections every other day starting one day after transplantation of 10^6 tumor cells/mouse; for LD10 Dose: mice, injected once per day every other day, total of 5 injections; for Cells Remaining: number of neoplastic cells remaining after treatment at LD10 dose, 10^6 tumor cells/mouse transplanted
Experimental: This is a standard assay that is used to evaluate the efficacy of compounds as antineoplastic agents for treating humans. The assay is described by D. J. Hitchinson, D. C. Robinson, D. Martin, O. L. Ittenson and Dillenberg, Journal Cancer Research, (1962) 22:57-72. It is a procedure for evaluating a compound for increase in median life span in treated animals and unteated controls both infected with L-1210 leukemia cells. […] Mice are injected once per day every other day for a total of 5 injections starting one day after transplantation of 10^6 tumor cells/mouse. The results of this assay with several, 8,10-dideazaminopterin analogs were as follows:
It is apparent from the above results that the life spans of the mice were increased considerably by administration of the invention compound and that this compound has surprising activity when compared to the non-alkylated and n-propyl or methyl analogs. The % ILS data represent comparisons of log values, and thus differences in the % ILS which appear minor mask large differences in cytotoxic activity. Thus, as shown, the ethyl derivative is 40 times as effective as the unsubstituted compound and 100 times as effective as the n-propyl derivative in terms of reducing the number of neoplastic cells; i.e., e.g., the number of cells remaining after 10-ethyl analog treatment is only 1/40 and 1/100 of that remaining from treatment with the above analogs, respectively. The assay and these conclusions are described by Schabel, F. M., Symposium on Proliferation and Spread of Neoplastic Cells, M. D. Anderson, Tumor Institute, Houston, Texas (1968), p. 379 ff.

Compound	ILS%	LD10 Dose	Cells Remaining	times as effective as the unsubstituted compound in terms of reducing the number of neoplastic cells (relative to 8,10-dideazaminopterin, ratio of cells remaining)	times as effective as the n-propyl derivative in terms of reducing the number of neoplastic cells (relative to 10-n-propyl-8,10-dideazaminopterin, ratio of cells remaining)
CN(Cc1cnc2nc(N)nc(N)c2n1)c1ccc(C(=O)N[C@@H](CCC(=O)O)C(=O)O)cc1 [Methotrexate]	+187%	15 Mg/Kg			
10-Methyl-8,10-dideazaminopterin	+203%	0.6 Mg/Kg	1000		
10-Propyl-8,10-dideazaminopterin [10-n-propyl-8,10-dideazaminopterin]	+176%	6.0 Mg/Kg	10,000		
10-ethyl-8,10-dideazaminopterin	+235%	1.5 Mg/Kg	100	40 times	100 times
Nc1nc(N)c2nc(CCc3ccc(C(=O)N[C@@H](CCC(=O)O)C(=O)O)cc3)ccc2n1 [8,10-dideazaminopterin]	+189%	0.75 Mg/Kg	4000		
